According to patent publication EP4636093A1, “TARGETING MAPK-ERK PATHWAY FOR ENHANCING NUCLEIC ACID DELIVERY” (priority 2024, dated 2025):
Read-outs that look alike come from different tables or passages of the source.

Experiments:
[1] = test system: T cells; format: cell-based, Human; settings: for increase in CAR expression: with vs without 400 nM deucravacitinib
[2] = test system: human T lymphocytes; format: cell-based; settings: AAV6 (GFP); 20 µM Vx-11e compared to untreated cells; average, three donors

Row | Compound | optimal doses [1] [µM] | VSV-LV mediated transduction efficiency increase ([1]; VSV-LV, 20 µM VX-11e, average, three donors) | AAV6 mediated transduction efficiency increase [2] | increase in CAR expression ([1]; CD4-LV, CD4 T cells, average, three donors) | increase in CAR expression ([1]; CD8-LV, CD8 T cells, average, three donors) [fold] | optimal dose ([1]; treatment of cells for 24 hours, CAR expression after LV transduction (one donor)) [nM]
1 | CC(C)Nc1cc(-c2c[nH]c(C(=O)N[C@H](CO)c3cccc(Cl)c3)c2)c(Cl)cn1 [ulixertinib] | 5 |  |  |  |  | 
2 | Cc1cnc(Nc2ccc(F)cc2Cl)nc1-c1c[nH]c(C(=O)N[C@H](CO)c2cccc(Cl)c2)c1 [VX-11e] | 20 | up to 1.8 fold | up to 2.1 fold |  |  | 
3 | Deucravacitinib |  |  |  | up to 1.7 fold | ≤ 3.6 | 400
